The experiment relates to lymphocytic leukemia P388 cells. Nature of the experiment: screening of cytostatic activity using lymphocytic leukemia P388 cells. The format is cell-based. The text has this:
The screening of cytostatic activity was made using lymphocytic leukemia P388 cells.

≈ marks a conversion by molar mass, not a printed value.

Compound `CC[C@H](C)[C@@H]([C@@H](CC(=O)N1CCC[C@H]1[C@H](OC)[C@@H](C)C(=O)N[C@@H](Cc1ccccc1)c1nccs1)OC)N(C)C(=O)[C@@H](NC(=O)[C@H](C(C)C)N(C)C)C(C)C` [Dolastatin 10] showed an ED50 of 0.7 ng/mL (≈ 0.892 nM).
